Reference: PMC8119466, “A screen of FDA-approved drugs identifies inhibitors of protein tyrosine phosphatase 4A3 (PTP4A3 or PRL-3)” (Scientific Reports, 2021)
Where a name gives a salt, the structure may show the parent alone. Read-outs that look alike come from different tables or passages of the source.

How the values were obtained:
Assay type in all cases: biochemical
recombinant PRL-2 = biological target: T1, recombinant PRL-2 (Homo sapiens, UniProt Q12974); experiment: In vitro phosphatase assay (DiFMUP hydrolysis), PRL-2;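 further: PRL-2 activity read as DiFMUP hydrolysis after 20 min at room temperature with drug, enzyme first pre-reduced at 4 °C for 20 min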
T1 construct: 6xHis (N, cleaved yes); made in house; host or cells: E. coli One Shot BL21 Star
T1 sequence (Q12974 1-167): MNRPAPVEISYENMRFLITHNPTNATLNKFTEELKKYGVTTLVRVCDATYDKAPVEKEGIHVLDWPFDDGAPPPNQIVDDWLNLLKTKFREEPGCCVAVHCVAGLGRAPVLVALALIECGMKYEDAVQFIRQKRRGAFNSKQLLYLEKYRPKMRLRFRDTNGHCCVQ

recombinant PRL-3 = biological target: T2, recombinant PRL-3 (Homo sapiens, UniProt O75365); experiment: In vitro phosphatase assay (DiFMUP hydrolysis), PRL-3; on % Phosphatase Activity (compared to DMSO) PRL-3: test concentration or dose not given here
T2 construct: 6xHis (N, cleaved yes); made in house; host or cells: E. coli One Shot BL21 Star
T2 sequence (O75365 whole entry): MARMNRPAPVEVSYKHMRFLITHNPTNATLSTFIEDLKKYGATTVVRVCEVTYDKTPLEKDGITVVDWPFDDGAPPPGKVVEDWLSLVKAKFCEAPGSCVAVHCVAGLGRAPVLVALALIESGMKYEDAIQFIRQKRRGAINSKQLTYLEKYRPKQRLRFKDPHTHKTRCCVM

recombinant PRL-1 = biological target: T3, recombinant PRL-1 (Homo sapiens, UniProt Q93096); experiment: In vitro phosphatase assay (DiFMUP hydrolysis), PRL-1; on % Phosphatase Activity (compared to DMSO) PRL-1: test concentration or dose not given here
T3 construct: 6xHis (N, cleaved yes); made in house; host or cells: E. coli One Shot BL21 Star
T3 sequence (Q93096 1-173): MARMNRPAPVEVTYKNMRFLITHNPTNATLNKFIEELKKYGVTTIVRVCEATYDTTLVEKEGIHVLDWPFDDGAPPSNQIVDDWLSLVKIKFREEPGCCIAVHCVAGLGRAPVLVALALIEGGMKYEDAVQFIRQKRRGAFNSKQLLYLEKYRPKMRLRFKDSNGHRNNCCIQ

[1] = FDA-approved drug screen, compared to DMSO
[2] = FDA-approved drug screen, activity compared to DMSO

| Compound | % Phosphatase Activity (compared to DMSO) PRL-2 (recombinant PRL-2; [1]) | % Phosphatase Activity (compared to DMSO) PRL-3 (recombinant PRL-3; [1]) | % Phosphatase Activity (compared to DMSO) PRL-1 (recombinant PRL-1; [1]) | other results |
| --- | --- | --- | --- | --- |
| C[C@H]1O[C@@H](O[C@H]2[C@@H](O)C[C@H](O[C@H]3[C@@H](O)C[C@H](O[C@H]4CC[C@@]5(C)[C@H](CC[C@@H]6[C@@H]5C[C@@H](O)[C@]5(C)[C@@H](C7=CC(=O)OC7)CC[C@]65O)C4)O[C@@H]3C)O[C@@H]2C)C[C@H](O)[C@@H]1O [Digoxin] | 95% | 76% | 102% |  |
| O=c1[nH]c(=O)n([C@H]2C[C@H](O)[C@@H](CO)O2)cc1I [Idoxuridine] | 103% | 90% | 94% |  |
| COC(=O)[C@H](c1ccccc1Cl)N1CCc2sccc2C1 [Clopidogrel] |  |  |  | % Phosphatase Activity (compared to DMSO) PRL-2 (recombinant PRL-2): 86%; % Phosphatase Activity (compared to DMSO) PRL-3 (recombinant PRL-3): 81%; % Phosphatase Activity (compared to DMSO) PRL-1 (recombinant PRL-1): 100% |
| O=C(CCCCCCNC(=O)c1cnc(N(c2ccccc2)c2ccccc2)nc1)NO [Rocilinostat (ACY-1215)] | 98% | 97% | 102% |  |
| CC(O)C(=O)O.CC(O)C(=O)O.CN1CCN(c2ccc3nc(-c4c(N)c5c(F)cccc5[nH]c4=O)[nH]c3c2)CC1 [Dovitinib (TKI-258) Dilactic Acid] | 80% | 91% | 92% |  |
| C[C@H]1C[C@H]2[C@@H]3CCC4=CC(=O)C=C[C@]4(C)[C@@]3(F)[C@@H](O)C[C@]2(C)[C@@]1(O)C(=O)CO [Betamethasone] | 88% | 72% | 95% |  |
| CCn1cc(C(=O)O)c(=O)c2ccc(C)nc21 [Nalidixic acid] | 122% | 100% | 112% |  |
| CCCCC(=O)O[C@H]1CC[C@H]2[C@@H]3CCc4cc(O)ccc4[C@H]3CC[C@]12C [Estradiol valerate] | 99% | 85% | 103% |  |
| CNC[C@H](O)c1ccc(O)c(O)c1 [Epinephrine Bitartrate] |  |  |  | % Phosphatase Activity (compared to DMSO) PRL-2 (recombinant PRL-2): 90%; % Phosphatase Activity (compared to DMSO) PRL-3 (recombinant PRL-3): 82%; % Phosphatase Activity (compared to DMSO) PRL-1 (recombinant PRL-1): 116% |
| CN1CCC(=C2c3ccccc3CC(=O)c3sccc32)CC1 [Ketotifen Fumarate] | 97% | 89% | 93% |  |
| CCCCC(=O)N(Cc1ccc(-c2ccccc2-c2nnn[nH]2)cc1)[C@H](C(=O)O)C(C)C [Valsartan] |  |  |  | % Phosphatase Activity (compared to DMSO) PRL-2 (recombinant PRL-2; [2]): 115%; % Phosphatase Activity (compared to DMSO) PRL-3 (recombinant PRL-3; [2]): 101%; % Phosphatase Activity (compared to DMSO) PRL-1 (recombinant PRL-1; [2]): 86% |
| CCOc1ccc(Cc2cc([C@@H]3O[C@H](CO)[C@@H](O)[C@H](O)[C@H]3O)ccc2Cl)cc1 [Dapagliflozin] |  |  |  | % Phosphatase Activity (compared to DMSO) PRL-2 (recombinant PRL-2): 91%; % Phosphatase Activity (compared to DMSO) PRL-3 (recombinant PRL-3): 89%; % Phosphatase Activity (compared to DMSO) PRL-1 (recombinant PRL-1): 98% |
| C/C(=C\c1csc(C)n1)[C@@H]1C[C@@H]2O[C@]2(C)CCC[C@H](C)[C@H](O)[C@@H](C)C(=O)C(C)(C)[C@@H](O)CC(=O)O1 [Epothilone B (EPO906, Patupilone)] | 93% | 80% | 98% |  |
| Cc1cccc(C)c1N=C1NCCCS1 [Xylazine HCl] |  |  |  | % Phosphatase Activity (compared to DMSO) PRL-2 (recombinant PRL-2): 112%; % Phosphatase Activity (compared to DMSO) PRL-3 (recombinant PRL-3): 91%; % Phosphatase Activity (compared to DMSO) PRL-1 (recombinant PRL-1): 110% |
| CN1C2CCCC1CC(NC(=O)c1nn(C)c3ccccc13)C2 (stereo not drawn) [Granisetron HCl] | 74% | 93% | 86% |  |
| C[C@]12CC[C@H]3[C@@H](CCC4=CC(=O)CC[C@@H]43)[C@@H]1CC[C@@H]2O [Nandrolone] |  |  |  | % Phosphatase Activity (compared to DMSO) PRL-2 (recombinant PRL-2): 93%; % Phosphatase Activity (compared to DMSO) PRL-3 (recombinant PRL-3): 78%; % Phosphatase Activity (compared to DMSO) PRL-1 (recombinant PRL-1): 93% |
| COc1c2occc2cc2ccc(=O)oc12 [Methoxsalen] | 99% | 78% | 81% |  |
| CN1CCC(=C2c3ccccc3CCn3c(C=O)cnc32)CC1 [Alcaftadine] | 89% | 85% | 98% |  |

| Compound | % Phosphatase Activity (compared to DMSO) PRL-2 (recombinant PRL-2; [1]) | % Phosphatase Activity (compared to DMSO) PRL-3 (recombinant PRL-3; [1]) | % Phosphatase Activity (compared to DMSO) PRL-1 (recombinant PRL-1; [1]) | other results |
| --- | --- | --- | --- | --- |
| O=[N+]([O-])C(Br)(CO)CO [Bronopol] | 96% | 86% | 103% |  |
| CO/N=C(/C(=O)N[C@@H]1C(=O)N2C(C(=O)[O-])=C(CSc3nc(=O)c([O-])nn3C)CS[C@H]12)c1csc(N)n1.O.O.O.[Na+].[Na+] [Ceftriaxone Sodium Trihydrate] | 115% | 108% | 102% |  |
| CO[C@H]1/C=C/O[C@@]2(C)Oc3c(C)c(O)c4c(O)c(c(/C=N/N5CCN(C6CCCC6)CC5)c(O)c4c3C2=O)NC(=O)/C(C)=C\C=C\[C@H](C)[C@H](O)[C@@H](C)[C@@H](O)[C@@H](C)[C@H](OC(C)=O)[C@@H]1C [Rifapentine] | 57% | 74% | 61% |  |
| CCOC(=O)c1ccc(N)cc1.Cl [Benzocaine hydrochloride] | 102% | 84% | 100% |  |
| COc1cccc2c1C(=O)c1c(O)c3c(c(O)c1C2=O)C[C@@](O)(C(C)=O)C[C@@H]3O[C@H]1C[C@H](N)[C@H](O)[C@H](C)O1 [Daunorubicin HCl] | 92% | 82% | 83% |  |
| CCCCNc1cc(C(=O)O)cc(S(N)(=O)=O)c1Oc1ccccc1 [Bumetanide] | 128% | 98% | 123% |  |
| Cl.O=C1OC(CN2CCOCC2)CN1/N=C/c1ccc([N+](=O)[O-])o1 (stereo not drawn) [Furaltadone HCl] | 80% | 65% | 74% |  |
| COc1cc2c(cc1Cc1cccc(Cl)c1F)c(=O)c(C(=O)O)cn2[C@H](CO)C(C)C [Elvitegravir (GS-9137, JTK-303)] | 84% | 81% | 82% |  |
| CC(C)c1cc(C(=O)N2Cc3ccc(CN4CCN(C)CC4)cc3C2)c(O)cc1O [AT13387] | 100% | 82% | 98% |  |
| CC(C(=O)O)c1ccc(CC2CCCC2=O)cc1 (stereo not drawn) [Loxoprofen] | 83% | 102% | 109% |  |
| Cn1c(=O)c2[nH]cnc2n(C)c1=O [Theophylline] |  |  |  | % Phosphatase Activity (compared to DMSO) PRL-2 (recombinant PRL-2; [2]): 98%; % Phosphatase Activity (compared to DMSO) PRL-3 (recombinant PRL-3; [2]): 84%; % Phosphatase Activity (compared to DMSO) PRL-1 (recombinant PRL-1; [2]): 105% |
| CC(N)C12CC3CC(CC(C3)C1)C2 (stereo not drawn) [Rimantadine] | 106% | 80% | 91% |  |
| CCN(CC)CC#CCOC(=O)C(O)(c1ccccc1)C1CCCCC1 (stereo not drawn) [Oxybutynin chloride] | 85% | 75% | 88% |  |
| Cc1cc(C(C#N)c2ccc(Cl)cc2)c(Cl)cc1NC(=O)c1cc(I)cc(I)c1[O-].[Na+] (stereo not drawn) [Closantel Sodium, reference compound] | 12% | 34% | 15% | IC50 (recombinant PRL-2; […] protein, DiFMUP at KM, read-out: Calculated IC50, PRL-2 phosphatase activity): 18 ± 1 µM; IC50 (recombinant PRL-3; […] protein, DiFMUP at KM, read-out: Calculated IC50, PRL-3 phosphatase activity): 10 ± 0.4 µM; IC50 (recombinant PRL-1; […] protein, DiFMUP at KM, read-out: Calculated IC50, PRL-1 phosphatase activity): 22 ± 8 µM |
| CCC[C@@H]1C[C@@H](C(=O)N[C@@H]([C@H]2O[C@H](SC)[C@H](O)[C@@H](O)[C@H]2O)[C@@H](C)O)N(C)C1 [Lincomycin HCl] | 111% | 76% | 109% |  |
| C=CC(=O)N1CCC(Oc2cc3c(Nc4ccc(Cl)c(Cl)c4F)ncnc3cc2OC)CC1 [Poziotinib (HM781-36B)] | 80% | 106% | 96% |  |
| CCCN1CCCC[C@H]1C(=O)Nc1c(C)cccc1C [Ropivacaine HCl] | 110% | 80% | 100% |  |
| Cc1ccc(-c2ncc(Cl)cc2-c2ccc(S(C)(=O)=O)cc2)cn1 [Etoricoxib] | 102% | 91% | 93% |  |
